Laboratory results from patent US12324802B2, “Modulators of cystic fibrosis transmembrane conductance regulator” (Vertex Pharmaceuticals Incorporated, priority 2020, dated 2025).
pEC50: −log10 of the molar value. Read-outs that look alike come from different tables or passages of the source. Each block holds one molecule with its values, some of them ahead of it.

Tests used:
[1] = biological target: T1, CFTR (F508del/MF-HBE cells) (Homo sapiens, UniProt P13569, DEL508-508); experiment: Ussing chamber assay of CFTR-mediated short-circuit currents (identification of potentiator compounds); type: cell-based; conditions: CFTR-mediated ISC in F508del/MF-HBE cells; incubated 18-24 hours at 37° C. with 10 μM (14S)-8-[3-(2-{dispiro[2.0.2.1]heptan-7-yl}ethoxy)-1H-pyrazol-1-yl]-...-2,2,4-trione, 20% human serum
T1 construct: human bronchial epithelial (HBE) cells derived from CF subjects heterozygous for F508del and a minimal function CFTR mutation; endogenous in cells; host or cells: primary human bronchial epithelial cells from CF subjects (F508del/MF genotype)
Outline: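 F508del/minimal-function HBE cultures grown at air-liquid interface were incubated for 18–24 h at 37 °C with potentiator plus 10 μM corrector, in 20% human serum, and compounds stayed present during recording. Transepithelial ISC was recorded at 0 mV and 37 °C with 30 μM apical amiloride. CFTR current was taken as the peak response to 20 μM forskolin minus the steady state after a 20 μM inhibitor cocktail.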

T1 sequence (P13569 with tags, fused parts or gaps DEL508-508): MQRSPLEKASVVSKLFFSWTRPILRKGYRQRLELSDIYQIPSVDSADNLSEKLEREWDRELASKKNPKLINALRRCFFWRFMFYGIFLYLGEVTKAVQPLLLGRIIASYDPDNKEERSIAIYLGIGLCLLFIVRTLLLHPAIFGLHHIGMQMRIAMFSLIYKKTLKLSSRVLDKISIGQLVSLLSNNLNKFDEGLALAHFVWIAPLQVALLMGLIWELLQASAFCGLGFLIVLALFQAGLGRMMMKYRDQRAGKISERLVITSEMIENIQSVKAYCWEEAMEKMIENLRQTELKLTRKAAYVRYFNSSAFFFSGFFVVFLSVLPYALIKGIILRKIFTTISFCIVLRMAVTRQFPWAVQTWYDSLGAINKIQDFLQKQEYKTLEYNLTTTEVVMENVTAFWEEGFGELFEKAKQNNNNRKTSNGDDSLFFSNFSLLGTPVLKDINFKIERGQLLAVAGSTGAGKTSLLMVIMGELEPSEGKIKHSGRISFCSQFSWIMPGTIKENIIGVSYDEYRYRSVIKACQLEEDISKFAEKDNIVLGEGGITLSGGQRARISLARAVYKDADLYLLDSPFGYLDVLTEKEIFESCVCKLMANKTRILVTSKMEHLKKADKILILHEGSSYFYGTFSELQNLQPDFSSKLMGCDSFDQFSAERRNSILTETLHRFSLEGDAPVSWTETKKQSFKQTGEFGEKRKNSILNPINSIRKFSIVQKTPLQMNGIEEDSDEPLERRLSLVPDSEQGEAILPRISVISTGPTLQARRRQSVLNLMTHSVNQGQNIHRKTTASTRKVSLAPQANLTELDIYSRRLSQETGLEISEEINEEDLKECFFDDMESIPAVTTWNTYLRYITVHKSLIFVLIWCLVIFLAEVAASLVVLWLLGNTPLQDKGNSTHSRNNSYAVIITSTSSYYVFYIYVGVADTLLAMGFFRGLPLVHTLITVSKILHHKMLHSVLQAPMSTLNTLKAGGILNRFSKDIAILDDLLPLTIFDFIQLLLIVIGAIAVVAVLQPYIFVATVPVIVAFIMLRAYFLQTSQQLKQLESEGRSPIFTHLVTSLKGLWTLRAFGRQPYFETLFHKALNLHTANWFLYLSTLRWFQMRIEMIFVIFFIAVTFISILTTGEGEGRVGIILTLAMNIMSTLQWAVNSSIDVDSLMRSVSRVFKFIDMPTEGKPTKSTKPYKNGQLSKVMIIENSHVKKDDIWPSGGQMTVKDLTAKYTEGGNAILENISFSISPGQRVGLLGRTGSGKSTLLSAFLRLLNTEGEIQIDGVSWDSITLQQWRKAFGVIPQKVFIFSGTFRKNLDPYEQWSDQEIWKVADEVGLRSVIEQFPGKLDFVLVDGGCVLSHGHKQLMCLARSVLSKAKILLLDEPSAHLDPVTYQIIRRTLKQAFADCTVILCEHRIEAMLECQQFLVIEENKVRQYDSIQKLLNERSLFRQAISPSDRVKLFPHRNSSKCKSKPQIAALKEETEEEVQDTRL

SMILES: CC(C)(C)OC(=O)Nc1cc(C(F)(F)F)c2nc1-c1nnc(o1)C(OCc1ccccc1)(C(F)(F)F)CCCC(=O)N1CCN2CC1 (stereo not shown)
ring closure, isolated yield (from CC(C)(C)OC(=O)Nc1cc(C(F)(F)F)c(N2CCNCC2)nc1-c1nnc(C(CCCC(=O)O)(OCc2ccccc2)C(F)(F)F)o1, amide bond, 15-membered ring, HATU/DIEA, DMF, 14.5 mM, 25.0 °C, 0.083 h): 80%

SMILES: CC(C)(C)OC(=O)Nc1cc(C(F)(F)F)c2nc1-c1nnc(o1)C(OCc1ccccc1)(C(F)(F)F)CCCCC1CCN2C1 (stereo not shown)
ring closure, isolated yield (from CC(C)(C)OC(=O)Nc1cc(C(F)(F)F)c(Br)nc1-c1nnc(C(CCCCC2CCNC2)(OCc2ccccc2)C(F)(F)F)o1, snar bond, 14-membered ring, DIEA, MeCN, 6.33 mM, 80.0 °C, 16.0 h): 79%

SMILES: CC1(C)CCCC(OCc2ccccc2)(C(F)(F)F)C(=O)NNC(=O)c2nc(c(C(F)(F)F)cc2[N+](=O)[O-])NCC1 (stereo not shown)
ring closure, isolated yield (from CC(C)(CCCC(OCc1ccccc1)(C(=O)O)C(F)(F)F)CCNc1nc(C(=O)O)c([N+](=O)[O-])cc1C(F)(F)F, crosslinker bond, 15-membered ring, hydrazine/BOP/HOAt/DIEA, DMF, 2.1 mM, 30.0 °C): 84%

SMILES: CC1(C)CCCOCC(OCc2ccccc2)(C(F)(F)F)C2=NN=C(O2)c2nc(c(C(F)(F)F)cc2[N+](=O)[O-])N1 (stereo not shown)
ring closure, isolated yield (from Cc1ccc(S(=O)(=O)Oc2nc(-c3nnc(C(COCCCC(C)(C)N)(OCc4ccccc4)C(F)(F)F)o3)c([N+](=O)[O-])cc2C(F)(F)F)cc1, snar bond, 14-membered ring, DIEA, DCM, 1.47 mM): 45%

SMILES: CC1(C)COCCCC(OCc2ccccc2)(C(F)(F)F)C(=O)NNC(=O)c2nc(c(C(F)(F)F)cc2[N+](=O)[O-])N1 (stereo not shown)
ring closure, isolated yield (from CC(C)(COCCCC(OCc1ccccc1)(C(=O)O)C(F)(F)F)Nc1nc(C(=O)NN)c([N+](=O)[O-])cc1C(F)(F)F, amide bond, 15-membered ring, BOP/HOBt/DIEA, DMF, 2.78 mM, 25.0 °C, 24.0 h): 28%

SMILES: O=[N+]([O-])c1cc(C(F)(F)F)c2nc1-c1nnc(o1)C(OCc1ccccc1)(C(F)(F)F)CCC=CCC(CO)N2 (stereo not shown)
ring closure, isolated yield (from C=CCCC(OCc1ccccc1)(c1nnc(-c2nc(NC(CO)CC=C)c(C(F)(F)F)cc2[N+](=O)[O-])o1)C(F)(F)F, rcm bond, 14-membered ring, Zhan-1B, DCE, 3.01 mM, 70.0 °C, 2.0 h): 32%

SMILES: O=[N+]([O-])c1cc(C(F)(F)F)c2nc1-c1nnc(o1)[C@@](OCc1ccccc1)(C(F)(F)F)CC=CCCC(C1CC1)N2 (stereo partly shown)
ring closure, isolated yield (from C=CCCC(Nc1nc(-c2nnc([C@@](CC=C)(OCc3ccccc3)C(F)(F)F)o2)c([N+](=O)[O-])cc1C(F)(F)F)C1CC1, rcm bond, 14-membered ring, Zhan catalyst-1B, DCE, 2.49 mM, 66.0 °C, 1.6 h): 76%

SMILES: CC(C)(C)OC(=O)Nc1cc(C(F)(F)F)c2nc1-c1nnc(o1)C(OCc1ccccc1)(C(F)(F)F)CCC=CCC1CCCN21 (mixture of isomers)
ring closure, isolated yield (from C=CCCC(OCc1ccccc1)(c1nnc(-c2nc(N3CCCC3CC=C)c(C(F)(F)F)cc2NC(=O)OC(C)(C)C)o1)C(F)(F)F, rcm bond, 14-membered ring, Grubbs II (21 mol%), DCE, 15.2 mM, 80.0 °C, 0.75 h): 84%

SMILES: CC(C)(C)OC(=O)Nc1cc(C(F)(F)F)c2nc1-c1nnc(o1)C(OCc1ccccc1)(C(F)(F)F)CCC=CCCC1CCCN21 (mixture of isomers)
ring closure, isolated yield (from C=CCCC1CCCN1c1nc(-c2nnc(C(CCC=C)(OCc3ccccc3)C(F)(F)F)o2)c(NC(=O)OC(C)(C)C)cc1C(F)(F)F, rcm bond, 15-membered ring, Zhan-1B (24 mol%), DCE, 4.89 mM, 70.0 °C, 16.0 h): 53%

SMILES: CC(C)(C)OC(=O)Nc1cc(C(F)(F)F)c2nc1-c1nnc(o1)C(OCc1ccccc1)(C(F)(F)F)CCC=CC[C@@H]1COCC(=O)N21 (mixture of isomers)
ring closure, isolated yield (from C=CCCC(OCc1ccccc1)(c1nnc(-c2nc(N3C(=O)COC[C@H]3CC=C)c(C(F)(F)F)cc2NC(=O)OC(C)(C)C)o1)C(F)(F)F, rcm bond, 14-membered ring, Zhan-1B, DCE, 3.35 mM, 75.0 °C, 4.0 h): 73%

SMILES: CC(C)C1CCC=CC[C@](OCc2ccccc2)(C(F)(F)F)C2=NN=C(O2)c2nc(c(C(F)(F)F)cc2[N+](=O)[O-])N1 (mixture of isomers)
ring closure, isolated yield (from C=CCCC(Nc1nc(-c2nnc([C@@](CC=C)(OCc3ccccc3)C(F)(F)F)o2)c([N+](=O)[O-])cc1C(F)(F)F)C(C)C, rcm bond, 14-membered ring, Zhan catalyst-1B, DCE, 15.4 mM, 70.0 °C): 47%

SMILES: CC1(C)CC2CC=Cc3ccc(F)c(c3)C(O)(C(F)(F)F)C3=NN=C(O3)c3nc(c(C(F)(F)F)cc3N(C(=O)OC(C)(C)C)C(=O)OC(C)(C)C)N2C1 (mixture of isomers)
ring closure, isolated yield (from C=CCC1CC(C)(C)CN1c1nc(-c2nnc(C(O)(c3cc(I)ccc3F)C(F)(F)F)o2)c(N(C(=O)OC(C)(C)C)C(=O)OC(C)(C)C)cc1C(F)(F)F, cc_pd bond, 15-membered ring, Pd(OAc)2/P(o-tol)3/Et3N, MeCN, 7.06 mM, 80.0 °C, 22.0 h): 58%

SMILES: CC1(C)CC=CCC(OCc2ccccc2)(C(F)(F)F)C2=NN=C(O2)c2nc(c(C(F)(F)F)cc2[N+](=O)[O-])NC1 (mixture of isomers)
ring closure, isolated yield (from C=CCC(C)(C)CNc1nc(-c2nnc(C(CC=C)(OCc3ccccc3)C(F)(F)F)o2)c([N+](=O)[O-])cc1C(F)(F)F, rcm bond, 14-membered ring, Zhan catalyst-1B, DCE, 2.0 mM, 80.0 °C, 16.0 h): 14%

SMILES: CC1(C)CCC=CC(F)(F)C(OCc2ccccc2)C2=NN=C(O2)c2nc(c(C(F)(F)F)cc2[N+](=O)[O-])N1 (mixture of isomers)
ring closure, isolated yield (from C=CCCC(C)(C)Nc1nc(-c2nnc(C(OCc3ccccc3)C(F)(F)C=C)o2)c([N+](=O)[O-])cc1C(F)(F)F, rcm bond, 14-membered ring, Grubbs II, 1,2-dichloroethane, 1.85 mM, 75.0 °C, 1.67 h): 40%

SMILES: CC1(C)CCC=CC[C@@](OCc2ccccc2)(C(F)(F)F)C2=NN=C(O2)c2nc(c(C(F)(F)F)cc2N(C(=O)OC(C)(C)C)C(=O)OC(C)(C)C)N1 (mixture of isomers)
ring closure, isolated yield (from C=CCCC(C)(C)Nc1nc(-c2nnc([C@](CC=C)(OCc3ccccc3)C(F)(F)F)o2)c(N(C(=O)OC(C)(C)C)C(=O)OC(C)(C)C)cc1C(F)(F)F, rcm bond, 14-membered ring, Zhan catalyst-1B, toluene, 8.66 mM, 70.0 °C, 3.0 h): 62%

SMILES: CC1(C)Nc2nc(c([N+](=O)[O-])cc2C(F)(F)F)C2=NN=C(O2)[C@@](OCc2ccccc2)(C(F)(F)F)CC=CCC1OCc1ccccc1 (mixture of isomers)
ring closure, isolated yield (from C=CCC(OCc1ccccc1)C(C)(C)Nc1nc(-c2nnc([C@@](CC=C)(OCc3ccccc3)C(F)(F)F)o2)c([N+](=O)[O-])cc1C(F)(F)F, rcm bond, 14-membered ring, Zhan catalyst-1B, DCE, 2.36 mM, 70.0 °C, 18.0 h): 76%

SMILES: CCOC(=O)C1CCC=CCC(OCc2ccccc2)(C(F)(F)F)C2=NN=C(O2)c2nc(c(C(F)(F)F)cc2[N+](=O)[O-])N1 (mixture of isomers)
ring closure, isolated yield (from C=CCCC(Nc1nc(-c2nnc(C(CC=C)(OCc3ccccc3)C(F)(F)F)o2)c([N+](=O)[O-])cc1C(F)(F)F)C(=O)OCC, rcm bond, 14-membered ring, Zhan-1B, DCE, 2.96 mM, 75.0 °C, 2.0 h): 82%

SMILES: COCC1CCC=CC[C@](OCc2ccccc2)(C(F)(F)F)C2=NN=C(O2)c2nc(c(C(F)(F)F)cc2[N+](=O)[O-])N1 (mixture of isomers)
ring closure, isolated yield (from C=CCCC(COC)Nc1nc(-c2nnc([C@@](CC=C)(OCc3ccccc3)C(F)(F)F)o2)c([N+](=O)[O-])cc1C(F)(F)F, rcm bond, 14-membered ring, Zhan catalyst-1B, DCE, 3.15 mM, 60.0 °C, 5.75 h): 48%

SMILES: O=[N+]([O-])c1cc(C(F)(F)F)c2nc1-c1nnc(o1)C(OCc1ccccc1)(C(F)(F)F)CCC=CCC1CCS(=O)(=O)N21 (mixture of isomers)
ring closure, isolated yield (from C=CCCC(OCc1ccccc1)(c1nnc(-c2nc(N3C(CC=C)CCS3(=O)=O)c(C(F)(F)F)cc2[N+](=O)[O-])o1)C(F)(F)F, rcm bond, 14-membered ring, Zhan-1B, DCE, 4.72 mM, 75.0 °C, 6.0 h): 19%

SMILES: O=[N+]([O-])c1cc(C(F)(F)F)c2nc1-c1nnc(o1)[C@@](OCc1ccccc1)(C(F)(F)F)CC=CCCC(c1ncco1)N2 (mixture of isomers)
ring closure, isolated yield (from C=CCCC(Nc1nc(-c2nnc([C@@](CC=C)(OCc3ccccc3)C(F)(F)F)o2)c([N+](=O)[O-])cc1C(F)(F)F)c1ncco1, rcm bond, 14-membered ring, Zhan catalyst-1B, DCE, 2.9 mM, 70.0 °C, 4.25 h): 46%

SMILES: O=[N+]([O-])c1cc(Cl)c2nc1-c1nnc(o1)C(OCc1ccccc1)(C(F)(F)F)CCC=CC[C@@H]1CCCN21 (mixture of isomers)
ring closure, isolated yield (from C=CCCC(OCc1ccccc1)(c1nnc(-c2nc(N3CCC[C@H]3CC=C)c(Br)cc2[N+](=O)[O-])o1)C(F)(F)F, rcm bond, 14-membered ring, Zhan-1B, DCE, 5.74 mM, 70.0 °C, 3.0 h): 73%

pEC50 [1]: > 6.30
SMILES: CC1(C)CCC[C@@H](O)C[C@](O)(C(F)(F)F)C2=NN=C(O2)c2nc(c(C(F)(F)F)cc2N)N1 [Compound 187, (6R,8R)-17-amino-12,12-dimethyl-6,15-bis(trifluoromethyl)-19-oxa-3,4,13,18-tetrazatricyclo[12.3.1.12,5]nonadeca-1(18),2,4,14,16-pentaene-6,8-diol]

pEC50 [1]: > 6.30
SMILES: CC1(C)CCC[C@H](O)C[C@](O)(C(F)(F)F)C2=NN=C(O2)c2nc(c(C(F)(F)F)cc2N)N1 [Compound 188, (6R,8S)-17-amino-12,12-dimethyl-6,15-bis(trifluoromethyl)-19-oxa-3,4,13,18-tetrazatricyclo[12.3.1.12,5]nonadeca-1(18),2,4,14,16-pentaene-6,8-diol]

pEC50 [1]: > 6.30
SMILES: Nc1cc(C(F)(F)F)c2nc1-c1nnc(o1)[C@@](O)(C(F)(F)F)CCCCCC1(CCCCC1)N2 [Compound 193, (6R)-17-amino-6,15-bis(trifluoromethyl)spiro[19-oxa-3,4,13,18-tetrazatricyclo[12.3.1.12,5]nonadeca-1(18),2,4,14,16-pentaene-12,1′-cyclohexane]-6-ol]

pEC50 [1]: > 6.30
SMILES: Nc1cc(C(F)(F)F)c2nc1-c1nnc(o1)[C@@](O)(C(F)(F)F)CCCCCC1(CCOCC1)N2 [Compound 205, (6R)-17-amino-6,15-bis(trifluoromethyl)spiro[19-oxa-3,4,13,18-tetrazatricyclo[12.3.1.12,5]nonadeca-1(18),2,4,14,16-pentaene-12,4′-tetrahydropyran]-6-ol]
